Source: patent publication US20230303570A1, “KINASE INHIBITORS AND USES THEREOF” (ABM Therapeutics Corporation, priority 2020, published 2023)

These compounds were tested against HPK1 (MAP4K1) (Homo sapiens, UniProt Q92918) (assay: HPK1 (MAP4K1) kinase Lantha screen assay).
Type: biochemical
Experimental: The effect of the compounds on the activity of HPK1 (MAP4K1) kinase were assessed by Lantha screen assay. • 1. 1×kinase buffer was prepared (50 mM HEPES, pH 7.5, 10 mM MgCl2, 4 mM DT • 2. Compound and assay plates preparation: • 2-1) The compound was diluted to 100× of the final desired highest inhibitor concentration in reaction by 100% DMSO. For example, if a compound was tested at […], then a solution at 500 µM in DMSO was prepared in this step. • 2-2) For each tested compound, the compound was transferred in tubes to one well on a 96-well storage plate and serially diluted by transferring […] of 100% DMSO in the next well and so forth for a total of 6 concentrations. • 2-3) 100 μl of 100% DMSO were added to two empty wells to serve as no compound control and no enzyme control in the same 96-well plate. The resulting plate was labeled as the source plate. • 2-4) 40 μl of compound from source plate were transferred to a new 384-well Echo plate as the intermediate plate. 100 nl of each well from the 384-well Echo plate were transferred to a 384-well assay plate in duplicates. For example, A1 of the 384-well Echo plate was transferred to A1 and A2 of the 384-well plate. A2 of the 384-well Echo plate was transferred to A3 and A4 of the 384-well plate, and so on; • 3. Kinase reaction: a solution of MAP4K1 in 1× kinase buffer at 2-fold the final concentration of each reagent in the assay was prepared. 5 μl of kinase solution was added to each well of the assay plate, except for control wells without enzyme (add 5 μl of 1× kinase buffer instead). The plate was then shaken, then incubated at room temperature for 10 min. A substrate solution of Fluorescein-PKC and ATP in 1× kinase reaction buffer at 2-fold of the final concentration of each reagent desired in the assay was prepared. 5 μl of substrate solution was added to each well of the assay plate to start reaction. The plate was shaken, then covered, and incubated at room temperature for 90 minutes.
Kinase detection: detection solution of 2-fold of final concentration in Antibody Dilution Buffer was prepared. 10 μl of detection solution was added to each well of the assay plate to stop the reaction. The mixtures were mixed briefly with Centrifuge and incubated at room temperature 60 minutes before reading on a plate reader for fluorescence. Data was collected on Envision with excitation at 340 nm and emission at 520 nm and 495 nm.

Chain of HPK1 (MAP4K1) (Q92918 whole entry, species assumed): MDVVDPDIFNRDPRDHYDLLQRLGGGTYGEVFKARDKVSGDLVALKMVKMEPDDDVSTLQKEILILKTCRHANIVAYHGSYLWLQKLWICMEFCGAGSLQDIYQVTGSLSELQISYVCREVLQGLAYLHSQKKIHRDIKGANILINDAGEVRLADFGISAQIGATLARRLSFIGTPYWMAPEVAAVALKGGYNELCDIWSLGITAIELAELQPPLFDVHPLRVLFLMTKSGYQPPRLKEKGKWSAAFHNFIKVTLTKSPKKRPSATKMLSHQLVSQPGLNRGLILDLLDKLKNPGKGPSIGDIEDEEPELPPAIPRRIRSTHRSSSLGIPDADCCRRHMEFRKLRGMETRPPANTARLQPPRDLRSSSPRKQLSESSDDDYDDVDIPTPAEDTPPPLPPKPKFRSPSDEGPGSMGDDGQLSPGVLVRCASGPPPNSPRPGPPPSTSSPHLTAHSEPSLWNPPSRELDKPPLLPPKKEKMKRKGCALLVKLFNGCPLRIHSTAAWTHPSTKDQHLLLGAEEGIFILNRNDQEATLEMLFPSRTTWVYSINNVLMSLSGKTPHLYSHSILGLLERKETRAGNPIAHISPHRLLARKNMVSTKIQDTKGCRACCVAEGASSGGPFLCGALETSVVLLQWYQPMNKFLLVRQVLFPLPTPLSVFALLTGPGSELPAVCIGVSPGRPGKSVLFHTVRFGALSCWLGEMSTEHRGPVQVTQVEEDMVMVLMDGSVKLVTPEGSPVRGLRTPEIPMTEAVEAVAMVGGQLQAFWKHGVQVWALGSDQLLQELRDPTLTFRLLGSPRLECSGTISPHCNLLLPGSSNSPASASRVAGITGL

| SMILES | IC50 |
| --- | --- |
| COc1ncccc1Nc1ncc2c(n1)N1CCN=C1C(c1cc(NC(=O)c3cc(C(F)(F)F)ccn3)ccc1C)=C2 [Compound 222, N-(3-(2-((2-methoxypyridin-3-yl)amino)-8,9-dihydroimidazo[1′,2′:1,6]pyrido[2,3-d]pyrimidin-6-yl)-4-methylphenyl)-4-(trifluoromethyl)picolinamide] | < 0.1 µM |
| CC(=O)Nc1ncc2c(n1)N1CCN=C1C(c1cc(NC(=O)c3cc(C(F)(F)F)ccn3)ccc1C)=C2 [Compound 118, N-(3-(2-acetamido-8,9-dihydroimidazo[1′,2′:1,6]pyrido[2,3-d]pyrimidin-6-yl)-4-methylphenyl)-4-(trifluoromethyl)picolinamide] | 0.1 to 10 µM |
| Cc1ccc(NC(=O)c2cc(C(F)(F)F)ccn2)cc1C1=Cc2cnc(Nc3ccn[nH]3)nc2N2CCN=C12 [Compound 240, N-(3-(2-((1H-pyrazol-5-yl)amino)-8,9-dihydroimidazo[1′,2′:1,6]pyrido[2,3-d]pyrimidin-6-yl)-4-methylphenyl)-4-(trifluoromethyl)picolinamide] | < 0.1 µM |
| Cc1cc(F)c(NC(=O)c2cc(C(F)(F)F)ccn2)cc1C1=Cc2cnc(Nc3ccn(C)n3)nc2N2CCN=C12 [Compound 269, N-(2-fluoro-4-methyl-5-(2-((1-methyl-1H-pyrazol-3-yl)amino)-8,9-dihydroimidazo[1′,2′:1,6]pyrido[2,3-d]pyrimidin-6-yl)phenyl)-4-(trifluoromethyl)picolinamide] | < 0.1 µM |
| Cc1ccc(NC(=O)c2cc(C(F)(F)F)ccn2)cc1C1=Cc2cnc(Nc3cccc(F)c3)nc2N2CCN=C12 [Compound 226, N-(3-(2-((3-fluorophenyl)amino)-8,9-dihydroimidazo[1′,2′:1,6]pyrido[2,3-d]pyrimidin-6-yl)-4-methylphenyl)-4-(trifluoromethyl)picolinamide] | < 0.1 µM |
| Cc1ccc(Nc2ncc3c(n2)N2CCN=C2C(c2cc(NC(=O)c4cc(C(F)(F)F)ccn4)ccc2C)=C3)cc1F [Compound 228, N-(3-(2-((3-fluoro-4-methylphenyl)amino)-8,9-dihydroimidazo[1′,2′:1,6]pyrido[2,3-d]pyrimidin-6-yl)-4-methylphenyl)-4-(trifluoromethyl)picolinamide] | < 0.1 µM |
| Cc1ccc(NC(=O)c2cc(C(F)(F)F)ccn2)cc1C1=Cc2cnc(Nc3ccccn3)nc2N2CCN=C12 [Compound 216, N-(4-methyl-3-(2-(pyridin-2-ylamino)-8,9-dihydroimidazo[1′,2′:1,6]pyrido[2,3-d]pyrimidin-6-yl)phenyl)-4-(trifluoromethyl)picolinamide] | 0.1 to 10 µM |
| Cc1ccc(NC(=O)c2cc(C(F)(F)F)ccn2)cc1C1=Cc2cnc(NC3CNC3)nc2N2CCN=C12 [Compound 116, N-(3-(2-(azetidin-3-ylamino)-8,9-dihydroimidazo[1′,2′:1,6]pyrido[2,3-d]pyrimidin-6-yl)-4-methylphenyl)-4-(trifluoromethyl)picolinamide] | 0.1 to 10 µM |
| CNc1ncc2c(n1)N1CCN=C1C(c1cc(NC(=O)c3cc(C(F)(F)F)cc(-n4cnc(C)c4)n3)ccc1C)=C2 [Compound 157, 6-(4-methyl-1H-imidazol-1-yl)-N-(4-methyl-3-(2-(methylamino)-8,9-dihydroimidazo[1′,2′:1,6]pyrido[2,3-d]pyrimidin-6-yl)phenyl)-4-(trifluoromethyl)picolinamide] | 0.1 to 10 µM |
| CNc1ncc2c(n1)N1CCCN=C1C(c1cc(NC(=O)c3cc(C(F)(F)F)ccn3)ccc1C)=C2 [Compound 105, N-(4-methyl-3-(2-(methylamino)-9,10-dihydro-8H-pyrido[1,6-a:2,3-d′]dipyrimidin-6-yl)phenyl)-4-(trifluoromethyl)picolinamide] | 0.1 to 10 µM |
| CNc1ncc2c(n1)N1CCN=C1C(c1cc(NC(=O)C3CCNC(C(F)(F)F)C3)ccc1C)=C2 (stereo not drawn) [Compound 155, N-(4-methyl-3-(2-(methylamino)-8,9-dihydroimidazo[1′,2′:1,6]pyrido[2,3-d]pyrimidin-6-yl)phenyl)-2-(trifluoromethyl)piperidine-4-carboxamide] | > 10 µM |
| Cc1ccc(Nc2ncc3c(n2)N2CCN=C2C(c2cc(NC(=O)c4cc(C(F)(F)F)ccn4)c(F)cc2C)=C3)cn1 [Compound 267, N-(2-fluoro-4-methyl-5-(2-((6-methylpyridin-3-yl)amino)-8,9-dihydroimidazo[1′,2′:1,6]pyrido[2,3-d]pyrimidin-6-yl)phenyl)-4-(trifluoromethyl)picolinamide] | < 0.1 µM |
| CNc1ncc2c(n1)N1CCN=C1C(c1cc(NC(=O)c3ccnc(C(F)(F)F)n3)ccc1C)=C2 [Compound 147, N-(4-methyl-3-(2-(methylamino)-8,9-dihydroimidazo[1′,2′:1,6]pyrido[2,3-d]pyrimidin-6-yl)phenyl)-2-(trifluoromethyl)pyrimidine-4-carboxamide] | > 10 µM |
| CNc1ncc2c(n1)N1CCN=C1C(c1cc(NC(=O)c3cc(C#N)ccn3)ccc1C)=C2 [Compound 159, 4-cyano-N-(4-methyl-3-(2-(methylamino)-8,9-dihydroimidazo[1′,2′:1,6]pyrido[2,3-d]pyrimidin-6-yl)phenyl)picolinamide] | 0.1 to 10 µM |
| Cc1ccc(NC(=O)c2cc(C(F)(F)F)ccn2)cc1C1=Cc2cnc(Nc3cccnc3)nc2N2CCN=C12 [Compound 215, N-(4-methyl-3-(2-(pyridin-3-ylamino)-8,9-dihydroimidazo[1′,2′:1,6]pyrido[2,3-d]pyrimidin-6-yl)phenyl)-4-(trifluoromethyl)picolinamide] | < 0.1 µM |
| CNc1ncc2c(n1)N1CCN=C1C(c1cc(NC(=O)c3nccc(C(F)(F)F)n3)ccc1C)=C2 [Compound 148, N-(4-methyl-3-(2-(methylamino)-8,9-dihydroimidazo[1′,2′:1,6]pyrido[2,3-d]pyrimidin-6-yl)phenyl)-4-(trifluoromethyl)pyrimidine-2-carboxamide] | 0.1 to 10 µM |
| CNc1ncc2c(n1)N1CCN=C1C(c1cc(NC(=O)c3cncc(Cl)c3)ccc1C)=C2 [Compound 160, 5-chloro-N-(4-methyl-3-(2-(methylamino)-8,9-dihydroimidazo[1′,2′:1,6]pyrido[2,3-d]pyrimidin-6-yl)phenyl)nicotinamide] | > 10 µM |
| CNc1ncc2c(n1)N1CCN=C1C(c1cc(NC(=O)c3cccc(C(C)(C)C#N)c3)ccc1C)=C2 [Compound 161, 3-(2-cyanopropan-2-yl)-N-(4-methyl-3-(2-(methylamino)-8,9-dihydroimidazo[1′,2′:1,6]pyrido[2,3-d]pyrimidin-6-yl)phenyl)benzamide] | < 0.1 µM |
| COCCNc1ncc2c(n1)N1CCN=C1C(c1cc(NC(=O)c3cc(C(F)(F)F)ccn3)ccc1C)=C2 [Compound 112, N-(3-(2-((2-methoxyethyl)amino)-8,9-dihydroimidazo[1′,2′:1,6]pyrido[2,3-d]pyrimidin-6-yl)-4-methylphenyl)-4-(trifluoromethyl)picolinamide] | 0.1 to 10 µM |
| CNc1ncc2c(n1)N1CCN=C1C(c1nc(NC(=O)c3cc(C(F)(F)F)ccn3)ccc1C)=C2 [Compound 192, N-(5-methyl-6-(2-(methylamino)-8,9-dihydroimidazo[1′,2′:1,6]pyrido[2,3-d]pyrimidin-6-yl)pyridin-2-yl)-4-(trifluoromethyl)picolinamide] | > 10 µM |
| COc1ccncc1Nc1ncc2c(n1)N1CCN=C1C(c1cc(NC(=O)c3cc(C(F)(F)F)ccn3)ccc1C)=C2 [Compound 223, N-(3-(2-((4-methoxypyridin-3-yl)amino)-8,9-dihydroimidazo[1′,2′:1,6]pyrido[2,3-d]pyrimidin-6-yl)-4-methylphenyl)-4-(trifluoromethyl)picolinamide] | 0.1 to 10 µM |
| CNc1ncc2c(n1)N1CCN=C1C(c1cc(NC(=O)c3cc(C(F)(F)F)ccn3)cnc1C)=C2 [Compound 191, N-(6-methyl-5-(2-(methylamino)-8,9-dihydroimidazo[1′,2′:1,6]pyrido[2,3-d]pyrimidin-6-yl)pyridin-3-yl)-4-(trifluoromethyl)picolinamide] | 0.1 to 10 µM |
| Cc1ccc(Nc2ncc3c(n2)N2CCN=C2C(c2ccccc2Cl)=C3)cn1 [Compound 101, 6-(2-chlorophenyl)-N-(6-methylpyridin-3-yl)-8,9-dihydroimidazo[1′,2′:1,6]pyrido[2,3-d]pyrimidin-2-amine] | 0.1 to 10 µM |
| CNc1ncc2c(n1)N1C[C@@H](C)N=C1C(c1cc(NC(=O)c3cc(C(F)(F)F)ccn3)ccc1C)=C2 [Compound 127, (R)—N-(4-methyl-3-(8-methyl-2-(methylamino)-8,9-dihydroimidazo[1′,2′:1,6]pyrido[2,3-d]pyrimidin-6-yl)phenyl)-4-(trifluoromethyl)picolinamide] | 0.1 to 10 µM |
